One test deals with Cholinesterase (Homo sapiens, UniProt P06276). The test can be described thus: Butyrylcholinesterase Assay. The note with it: pH 7.7. As to the method:
The butyrylcholinesterase (BChE) inhibition activity was determined according to the Ellman's method with minor modifications. Total volume of the reaction mixture was 100 µL containing 60 µL, Na2HPO4 buffer, 50 mM and pH 7.7. Ten µL test compound 0.5 mM well-1, followed by the addition of 10 µL (0.5 unit well-1)BChE. […] The reaction was initiated by the addition of 10 µL of 0.5 mM well-1 substrate (butyrylthiocholine bromide) followed by the addition of 10 µL DTNB, 0.5 mM well-1. […] Synergy HT (BioTek, USA) 96-well plate reader was used in all experiments. All experiments were carried out with their respective controls in triplicate.

For a further test, the target named is Acetylcholinesterase (Homo sapiens, UniProt P22303). The test can be described thus: Acetylcholinesterase Assay. The note with it: pH 7.7. The method, then:
The AChE inhibition activity was determined according to the Ellman's method with slight modifications. Total volume of the reaction mixture was 100 µL. It contained 60 µL Na2HPO4 buffer with concentration of 50 mM and pH 7.7. Ten µL test compound (0.5 mM well-1) was added, followed by the addition of 10 µL (0.005 unit well-1) enzyme. The contents were mixed and preread at 405 nm. Then contents were pre-incubated for 10 min at 37 °C. The reaction was initiated by the addition of 10 µL of 0.5 mM well-1 substrate (acetylthiocholine iodide), followed by the addition of 10 µL DTNB (0.5 mM well-1). After 30 min of incubation at 37 °C, absorbance was measured at 405 nm. Synergy HT (BioTek, USA) 96-well plate reader was used in all experiments. All experiments were carried out with their respective controls in triplicate.

Structures are written as SMILES.

Chain of Acetylcholinesterase (P22303 whole entry): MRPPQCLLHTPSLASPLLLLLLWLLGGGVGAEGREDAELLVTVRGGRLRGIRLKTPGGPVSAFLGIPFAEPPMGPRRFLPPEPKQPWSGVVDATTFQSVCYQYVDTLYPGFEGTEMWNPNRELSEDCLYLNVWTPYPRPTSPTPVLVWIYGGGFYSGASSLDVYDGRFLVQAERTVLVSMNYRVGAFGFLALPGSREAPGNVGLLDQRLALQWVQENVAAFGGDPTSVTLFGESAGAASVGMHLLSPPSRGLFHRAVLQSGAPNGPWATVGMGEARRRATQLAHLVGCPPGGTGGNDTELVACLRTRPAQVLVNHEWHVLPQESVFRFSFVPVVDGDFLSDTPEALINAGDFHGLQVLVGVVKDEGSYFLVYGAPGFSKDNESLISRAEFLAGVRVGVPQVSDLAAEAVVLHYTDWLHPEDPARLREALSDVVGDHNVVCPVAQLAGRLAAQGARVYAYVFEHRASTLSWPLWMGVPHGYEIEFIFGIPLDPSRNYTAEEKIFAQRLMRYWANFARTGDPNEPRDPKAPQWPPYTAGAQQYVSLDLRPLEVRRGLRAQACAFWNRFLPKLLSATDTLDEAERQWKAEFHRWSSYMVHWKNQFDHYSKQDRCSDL
Chain of Cholinesterase (P06276 whole entry): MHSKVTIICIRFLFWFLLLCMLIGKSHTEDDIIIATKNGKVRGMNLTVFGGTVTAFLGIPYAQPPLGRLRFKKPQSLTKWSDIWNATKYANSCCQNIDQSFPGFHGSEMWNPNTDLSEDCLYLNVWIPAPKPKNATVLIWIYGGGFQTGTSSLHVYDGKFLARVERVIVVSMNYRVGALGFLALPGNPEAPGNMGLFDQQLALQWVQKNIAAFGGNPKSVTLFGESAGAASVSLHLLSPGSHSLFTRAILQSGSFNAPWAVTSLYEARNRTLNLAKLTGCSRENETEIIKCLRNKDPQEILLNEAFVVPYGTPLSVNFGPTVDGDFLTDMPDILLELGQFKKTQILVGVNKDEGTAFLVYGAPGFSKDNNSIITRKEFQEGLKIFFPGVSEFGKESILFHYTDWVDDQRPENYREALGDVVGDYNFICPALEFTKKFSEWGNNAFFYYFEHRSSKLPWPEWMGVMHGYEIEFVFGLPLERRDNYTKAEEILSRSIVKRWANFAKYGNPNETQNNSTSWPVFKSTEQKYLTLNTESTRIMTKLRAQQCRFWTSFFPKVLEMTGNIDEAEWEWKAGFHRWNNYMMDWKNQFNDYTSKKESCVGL

Turning to `CCCCN(c1ccc(-c2ccc(N(CCCC)S(=O)(=O)c3ccccc3)cc2)cc1)S(=O)(=O)c1ccccc1` [N,N'-(biphenyl-4,4'-diyl)bis(N-butylbenzenesulfonamide) (3c)], the IC50 on Cholinesterase was found to be 125 µM; at Acetylcholinesterase, 8.41 µM.
Take `CC(=O)N(c1ccc(-c2ccc(N(C(C)=O)S(=O)(=O)c3ccccc3)c(C)c2)cc1C)S(=O)(=O)c1ccccc1` [N,N'-(3,3'-dimethylbiphenyl-4,4'-diyl)bis(N-(phenylsulfonyl)acetamide) (3i)]: the IC50 on Acetylcholinesterase is 96.3 µM.
Regarding `CCCCCCCCCCCCCCCCN(c1ccc(-c2ccc(N(CCCCCCCCCCCCCCCC)S(=O)(=O)c3ccccc3)c(C)c2)cc1C)S(=O)(=O)c1ccccc1` [N,N'-(3,3'-dimethylbiphenyl-4,4'-diyl)bis(N-hexadecylbenzenesulfonamide) (3o)], the concentration for half-maximal inhibition (IC50) turned out to be 24.7 µM at Cholinesterase and 2.45 µM on Acetylcholinesterase.
Turning to `CCCCCN(c1ccc(-c2ccc(N(CCCCC)S(=O)(=O)c3ccccc3)c(C)c2)cc1C)S(=O)(=O)c1ccccc1` [N,N'-(3,3'-dimethylbiphenyl-4,4'-diyl)bis(N-pentylbenzenesulfonamide) (3l)], the concentration for half-maximal inhibition (IC50) on Acetylcholinesterase was found to be 51.2 µM.
Still for that read-out and setting: the value for `Cc1cc(-c2ccc(NS(=O)(=O)c3ccccc3)c(C)c2)ccc1NS(=O)(=O)c1ccccc1` [N,N'-(3,3'-dimethylbiphenyl-4,4'-diyl)dibenzenesulfonamide (2b)] was 123 µM; that for `Cc1cc(-c2ccc(N(C(C)C)S(=O)(=O)c3ccccc3)c(C)c2)ccc1N(C(C)C)S(=O)(=O)c1ccccc1` [N,N'-(3,3'-dimethylbiphenyl-4,4'-diyl)bis(N-isopropylbenzenesulfonamide) (3j)] was 101 µM.
Turning to `CCCCN(c1ccc(-c2ccc(N(CCCC)S(=O)(=O)c3ccccc3)c(C)c2)cc1C)S(=O)(=O)c1ccccc1` [N,N'-(3,3'-dimethylbiphenyl-4,4'-diyl)bis(N-butylbenzenesulfonamide) (3k)], the half-maximal inhibitory concentration (IC50) at Cholinesterase was found to be 20.3 µM; on Acetylcholinesterase it was 3.72 µM.
In the case of `CCCCCN(c1ccc(-c2ccc(N(CCCCC)S(=O)(=O)c3ccccc3)cc2)cc1)S(=O)(=O)c1ccccc1` [N,N'-(biphenyl-4,4'-diyl)bis(N-pentylbenzenesulfonamide) (3d)], the IC50 at Acetylcholinesterase is 79.6 µM.
For the compound `O=S(=O)(Nc1ccc(-c2ccc(NS(=O)(=O)c3ccccc3)cc2)cc1)c1ccccc1` [N,N'-(biphenyl-4,4'-diyl)dibenzenesulfonamide (2a)], the IC50 is 203 µM on Cholinesterase and 42.3 µM at Acetylcholinesterase.
As for `CCCCCCN(c1ccc(-c2ccc(N(CCCCCC)S(=O)(=O)c3ccccc3)cc2)cc1)S(=O)(=O)c1ccccc1` [N,N'-(biphenyl-4,4'-diyl)bis(N-hexylbenzenesulfonamide) (3e)], the IC50 at Acetylcholinesterase is 78.6 µM.
Regarding `CCCCCCN(c1ccc(-c2ccc(N(CCCCCC)S(=O)(=O)c3ccccc3)c(C)c2)cc1C)S(=O)(=O)c1ccccc1` [N,N'-(3,3'-dimethylbiphenyl-4,4'-diyl)bis(N-hexylbenzenesulfonamide) (3m)], the IC50 on Acetylcholinesterase came to 49.6 µM.
For `CCCCCCCN(c1ccc(-c2ccc(N(CCCCCCC)S(=O)(=O)c3ccccc3)c(C)c2)cc1C)S(=O)(=O)c1ccccc1` [N,N'-(3,3'-dimethylbiphenyl-4,4'-diyl)bis(N-heptylbenzenesulfonamide) (3n)], the IC50 on Cholinesterase amounted to 48.7 µM; at Acetylcholinesterase, 43.2 µM.
For `CC(=O)N(c1ccc(-c2ccc(N(C(C)=O)S(=O)(=O)c3ccccc3)cc2)cc1)S(=O)(=O)c1ccccc1` [N,N'-(biphenyl-4,4'-diyl)bis(N-(phenylsulfonyl)acetamide) (3a)], in that order: 156 µM and 103 µM.
For the compound `CCCCCCCN(c1ccc(-c2ccc(N(CCCCCCC)S(=O)(=O)c3ccccc3)cc2)cc1)S(=O)(=O)c1ccccc1` [N,N'-(biphenyl-4,4'-diyl)bis(N-heptylbenzenesulfonamide) (3f)], the concentration for half-maximal inhibition (IC50) on Acetylcholinesterase is 58.6 µM.
Regarding `Cc1cc(-c2ccc(N(Cc3ccccc3)S(=O)(=O)c3ccccc3)c(C)c2)ccc1N(Cc1ccccc1)S(=O)(=O)c1ccccc1` [N,N'-(3,3'-dimethylbiphenyl-4,4'-diyl)bis(N-benzylbenzenesulfonamide) (3p)], the results for the IC50 at Cholinesterase and on Acetylcholinesterase were 31.3 µM and 2.27 µM, respectively.
For `CCCCCCCCCCCCCCCCN(c1ccc(-c2ccc(N(CCCCCCCCCCCCCCCC)S(=O)(=O)c3ccccc3)cc2)cc1)S(=O)(=O)c1ccccc1` [N,N’-(biphenyl-4,4’-diyl)bis(N-hexadecylbenzenesulfonamide) (3g)], in that order: 7.74 µM and 4.63 µM.
For `O=S(=O)(c1ccccc1)N(Cc1ccccc1)c1ccc(-c2ccc(N(Cc3ccccc3)S(=O)(=O)c3ccccc3)cc2)cc1` [N,N'-(biphenyl-4,4'-diyl)bis(N-benzylbenzenesulfonamide) (3h)], in that order: 35.8 µM and 61.6 µM.
With `CC(C)N(c1ccc(-c2ccc(N(C(C)C)S(=O)(=O)c3ccccc3)cc2)cc1)S(=O)(=O)c1ccccc1` [N,N'-(biphenyl-4,4'-diyl)bis(N-isopropylbenzenesulfonamide) (3b)], at Acetylcholinesterase, the IC50 was found to be 73.2 µM.

These data come from BindingDB's records for doi:10.1016/j.bioorg.2015.11.002 (Government College University, 2016).
